The subject of data set [1] is A-549 (epithelial cancer cell line). As to the kind of experiment: Antiproliferative assay, A-549. The following applies: Homo sapiens, A549; read-out: Antiproliferative activity IC50 ± SEM, A-549. Format: cell-based. The source says: (§1) See Supplementary Appendix S1A.
(§2) DMSO (0.1%) was used as control.

For data set [2], the system named is HT-29 (colon cancer cell line). In words: Antiproliferative assay, HT-29. Particulars: Homo sapiens, HT-29, read-out: Antiproliferative activity IC50 ± SEM, HT-29.
Procedure: (§4) The IC50 of each compound was calculated using doxorubicin as the reference.
(§5) To explore the antiproliferative potential of compounds MTT assay was performed according to previously reported procedure using different cell lines to explore the antiproliferative potential of compounds propidium iodide fluorescence assay was performed using different cell lines. To calculate the total nuclear DNA, a fluorescent dye (propidium iodide, PI) is used which can attach to the DNA, thus offering a quick and precise technique. PI cannot pass through the cell membrane and its signal intensity can be considered as directly proportional to quantity of cellular DNA. Cells whose cell membranes are damaged or have changed permeability are counted as dead ones. The assay was performed by seeding the cells of different cell lines at a density of 3000-7500 cells/well (in 200µl medium) in culture plates followed by incubation for 24h at 37 °C in humidified 5% CO2/95% air atmospheric conditions. The medium was removed; the compounds were added to the plates at 10 µM concentrations (in 0.1% DMSO) in triplicates, followed by incubation for 48 h. DMSO (0.1%) was used as control. After incubation, medium was removed followed by the addition of PI (25 µl, 50µg/mL in water/medium) to each well of the plates. At -80 °C, the plates were allowed to freeze for 24 h, followed by thawing at 25 °C. A fluorometer (Polar-Star BMG Tech) was used to record the readings at excitation and emission wavelengths of 530 and 620 nm for each well. The percentage cytotoxicity of compounds was calculated using the following formula:
Data set [3] deals with T1, recombinant human DNA topo I (Homo sapiens, UniProt P11387).
T1 construct: purchased Topo GEN INC., USA
T1 sequence (P11387 1-765): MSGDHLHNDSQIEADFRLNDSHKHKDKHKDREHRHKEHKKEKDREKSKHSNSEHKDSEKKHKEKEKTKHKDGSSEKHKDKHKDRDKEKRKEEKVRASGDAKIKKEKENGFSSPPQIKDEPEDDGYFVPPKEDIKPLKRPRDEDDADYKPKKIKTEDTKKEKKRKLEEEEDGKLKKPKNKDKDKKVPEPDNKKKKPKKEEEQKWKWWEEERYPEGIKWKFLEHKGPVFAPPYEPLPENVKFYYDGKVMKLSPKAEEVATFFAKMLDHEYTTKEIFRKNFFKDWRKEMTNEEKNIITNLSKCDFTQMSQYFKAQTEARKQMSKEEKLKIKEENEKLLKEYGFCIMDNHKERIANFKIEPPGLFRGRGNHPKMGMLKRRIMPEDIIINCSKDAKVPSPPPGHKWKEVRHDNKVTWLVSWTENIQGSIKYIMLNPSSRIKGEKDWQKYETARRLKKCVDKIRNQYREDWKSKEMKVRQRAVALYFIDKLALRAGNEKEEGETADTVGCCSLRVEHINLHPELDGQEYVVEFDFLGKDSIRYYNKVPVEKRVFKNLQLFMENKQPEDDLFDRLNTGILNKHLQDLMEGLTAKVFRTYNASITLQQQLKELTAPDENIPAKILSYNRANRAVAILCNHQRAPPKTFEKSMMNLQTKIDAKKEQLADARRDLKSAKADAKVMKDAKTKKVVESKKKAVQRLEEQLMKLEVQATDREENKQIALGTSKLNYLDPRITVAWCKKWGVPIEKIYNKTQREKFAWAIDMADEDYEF
In words: Topo I inhibitory assay (pBR322 relaxation). Format: biochemical. How it is done:
(§3) All the tested compounds were dissolved in DMSO and the DNA topoisomerase I and II inhibitory activity of each compound was measured as follows according to previously reported methods. Mixture comprising of 100 ng supercoiled pBR322 plasmid DNA (Thermo Scientific, USA) and 0.2 ~ 1 unit of recombinant human DNA topo I (Topo GEN INC., USA) or topo IIα (USB Corp., USA) was incubated with or without the prepared compounds in the assay buffer (For topo I, 10 mM Tris-HCl (pH 7.9), 150 mM NaCl and 0.1% BSA, 0.1 mM spermidine and 5% glycerol; for topo II, 10 mM Tris-HCl (pH 7.9), 50 mM NaCl, 50 mM KCl, 5 mM MgCl2, 1 mM EDTA, 1 mM ATP and […] BSA) for 30 min at 37 ◦C. The reaction with final volume of 10 μL was stopped by adding the topo stop buffer (For topo I, 10% SDS solution containing 0.2% bromophenol blue, 0.2% xylene cyanol and 30% glycerol; for topo II, 7 mM EDTA). The reaction products were electrophoresed on 0.8% agarose gel at 50 V for 1 h with TAE electrophoresis buffer. The gels were stained in an EtBr solution (0.5 mg/mL) and visualized by transillumination with UV light and were quantitated using Alpha Tech ImagerTM (Alpha Innotech Corp., USA).

Data set [4] relates to four cancer cell lines (A-549, MCF-7, Panc-1, HT-29). As to the kind of experiment: Antiproliferative assay, average over the four cancer cell lines (GI50). Particulars: read-out: Antiproliferative activity IC50, Average (mean GI50).
Procedure: as §4, §5
Data set [5] has as its system MCF-7 (breast cancer cell line). In words: Antiproliferative assay, MCF-7. Format: cell-based. The following applies: Homo sapiens, MCF7; read-out: Antiproliferative activity IC50 ± SEM, MCF-7.
From the text: as §1, §2

Data set [6] addresses T2, topo IIα (Homo sapiens, UniProt P11388).
T2 construct: purchased USB Corp., USA
As to the kind of experiment: Topo IIα inhibitory assay (pBR322 relaxation). Format: biochemical. The protocol: as §3

Data set [7] concerns Panc-1 (pancreas cancer cell line). In words: Antiproliferative assay, Panc-1. Format: cell-based. Particulars: Homo sapiens, read-out: Antiproliferative activity IC50 ± SEM, Panc-1.
From the text: as §1, §2

The nature of data set [8]: Cell viability assay (MTT) on normal cell line.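 Further: values are percent cell viability not percent inhibition.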 Format: cell-based. The following applies: human, MCF-10A mammary epithelial cells, 50 µM of compound. How it is done: To study the effect of 4a-l and 5a-c on normal cell lines, a cell viability assay was done using the MCF-10A (human mammary gland epithelial) cell line ([Abdelbaset et al., 2019]; [Al-Wahaibi et al., 2020]). This study uses a concentration of 50 µM of the investigated compound for 4 days, after which cell viability is evaluated.
To study the effect of 4a-l and 5a-c on normal cell lines, a cell viability assay was done using the MCF-10A (human mammary gland epithelial) cell line ([Abdelbaset et al., 2019]; [Al-Wahaibi et al., 2020]). See Supplementary Appendix S1A.
MTT assay was carried out to study the effect of compounds on mammary epithelial cells (MCF-10A). The medium in which cells were propagated contained Dulbecco's modified Eagle's medium (DMEM)/ Ham's F-12 medium (1:1) supplemented with epidermal growth factor (20 ng/mL), hydrocortisone (500 ng/mL), insulin (10 μg/mL), 2 mM glutamine and 10% fetal calf serum. After every 2-3 days, the cells were passaged using trypsin ethylenediamine tetra acetic acid (EDTA). The cells were seeded at a density of 10^4 cells mL^-1 in flat-bottomed culture plates containing 96 wells each. After 24 h, medium was removed from the plates and the compounds in (in 0.1% DMSO) were added (in 200 μL medium to yield a final concentration of 0.1% v/v) to the wells of plates. A single compound was designated with four wells followed by incubation of plates for 96h at 37°C. After incubation, medium was removed completely from the plates followed by addition of MTT (0.4 mg/mL in medium) to each well and subsequent incubation of plates for 3h. MTT (along with the medium) was removed and DMSO (150μL) was added to each well of the culture plates, followed by vortexing and subsequent measurement of absorbance (at 540 nm) using microplate reader. The data are shown as percentage inhibition of proliferation in comparison with controls containing 0.1% DMSO.

Structures are written as SMILES.

T2 sequence (P11388 whole entry): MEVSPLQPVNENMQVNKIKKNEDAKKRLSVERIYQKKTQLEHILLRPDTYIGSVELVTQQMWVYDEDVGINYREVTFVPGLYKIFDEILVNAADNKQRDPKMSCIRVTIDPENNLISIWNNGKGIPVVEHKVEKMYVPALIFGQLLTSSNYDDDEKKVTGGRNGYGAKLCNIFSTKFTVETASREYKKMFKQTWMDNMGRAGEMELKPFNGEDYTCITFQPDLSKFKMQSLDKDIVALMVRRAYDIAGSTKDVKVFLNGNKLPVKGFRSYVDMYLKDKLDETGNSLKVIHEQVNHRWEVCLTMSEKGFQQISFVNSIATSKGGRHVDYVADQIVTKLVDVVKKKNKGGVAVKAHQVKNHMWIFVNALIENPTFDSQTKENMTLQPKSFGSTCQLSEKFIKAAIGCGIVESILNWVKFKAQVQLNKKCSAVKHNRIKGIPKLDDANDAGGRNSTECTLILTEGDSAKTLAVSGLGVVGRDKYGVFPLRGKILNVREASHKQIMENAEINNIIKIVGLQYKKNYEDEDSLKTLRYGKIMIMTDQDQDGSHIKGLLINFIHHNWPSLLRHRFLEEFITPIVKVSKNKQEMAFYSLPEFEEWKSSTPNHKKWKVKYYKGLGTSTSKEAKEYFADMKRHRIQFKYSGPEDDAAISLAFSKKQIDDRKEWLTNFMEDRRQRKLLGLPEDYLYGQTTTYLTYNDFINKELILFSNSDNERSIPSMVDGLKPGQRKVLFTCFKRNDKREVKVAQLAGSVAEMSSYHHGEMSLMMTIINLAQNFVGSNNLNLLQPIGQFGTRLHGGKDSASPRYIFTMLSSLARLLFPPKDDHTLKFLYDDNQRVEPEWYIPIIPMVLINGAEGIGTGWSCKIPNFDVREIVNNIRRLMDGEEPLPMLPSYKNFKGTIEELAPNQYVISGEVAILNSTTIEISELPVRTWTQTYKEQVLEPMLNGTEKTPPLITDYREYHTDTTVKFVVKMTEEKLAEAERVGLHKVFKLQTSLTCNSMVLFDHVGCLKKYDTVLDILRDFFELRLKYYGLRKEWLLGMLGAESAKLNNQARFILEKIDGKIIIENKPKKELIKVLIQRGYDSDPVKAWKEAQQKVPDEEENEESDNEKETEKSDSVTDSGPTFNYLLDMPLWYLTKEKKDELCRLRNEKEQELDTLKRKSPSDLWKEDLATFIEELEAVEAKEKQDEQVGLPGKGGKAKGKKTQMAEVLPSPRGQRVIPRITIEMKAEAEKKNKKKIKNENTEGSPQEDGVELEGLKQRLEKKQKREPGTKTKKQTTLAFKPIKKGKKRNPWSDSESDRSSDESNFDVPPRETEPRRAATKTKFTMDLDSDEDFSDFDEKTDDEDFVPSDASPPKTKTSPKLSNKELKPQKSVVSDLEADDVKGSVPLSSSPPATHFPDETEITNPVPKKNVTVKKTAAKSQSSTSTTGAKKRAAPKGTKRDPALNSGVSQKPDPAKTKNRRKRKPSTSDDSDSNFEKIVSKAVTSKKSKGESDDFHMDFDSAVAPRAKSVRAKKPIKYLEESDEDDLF

The IC50 is the point on the concentration scale where inhibition reaches its midpoint. The inhibition is the drop in the measured response relative to a control, in per cent. As a reminder, the melting point is the temperature of the solid-liquid transition. Usually viability stands for the share of living cells, or the viability signal relative to a control. `Cc1cccc2c(/N=C(\C3CCCC3)N3CCCCC3)cc(=O)[nH]c12` [Compound 4e, (E) 4-((Cyclopentyl(piperidin-1-yl)methylene)amino)-8-methylquinolin-2(1H)-one] gave a melting point of 184 °C. Also, the half-maximal inhibitory concentration (IC50) in data set [1] amounted to 1300 ± 100 nM. Besides, the IC50 in data set [2] is 1200 ± 100 nM. For the same molecule, in data set [3], the inhibition at 20 µM was 39.1% and the inhibition at 100 µM is 81.4%. In [4], the IC50 came to 1200 nM. Besides, the IC50 in data set [5] is 1100 ± 100 nM. Moreover, in [6], the inhibition at 20 µM worked out at 25.6% and the inhibition at 100 µM was determined as 60.4%. Besides, the IC50 in data set [7] is 1200 ± 100 nM. In addition, the viability at 4 days, 50 µM in data set [8] came out at 90%.

For the molecule `O=c1cc(/N=C(\C2CCCC2)N2CCCCC2)c2cc(Cl)ccc2[nH]1` [Compound 4d, (E) 4-((Cyclopentyl(piperidin-1-yl)methylene)amino)-6-chloroquinolin-2(1H)-one], the melting point is 248 °C. For the same molecule, in data set [1], the IC50 is 1500 ± 100 nM. Besides, in [2], the half-maximal inhibitory concentration (IC50) was found to be 1400 ± 100 nM. Moreover, in data set [3], the inhibition at 20 µM stood at 34.7% and the inhibition at 100 µM was found to be 71.6%. In addition, the IC50 in data set [4] was found to be 1350 nM. Moreover, the IC50 in data set [5] worked out at 1200 ± 100 nM. In addition, in data set [6], the inhibition at 20 µM was determined as 21.7% and the inhibition at 100 µM is 54.2%. In addition, the IC50 in [7] was determined as 1300 ± 100 nM. In addition, the viability at 4 days, 50 µM in data set [8] worked out at 92%.

`Cc1ccc2[nH]c(=O)cc(/N=C(\C3CCCC3)N3CCCCC3)c2c1` [Compound 4b, (E) 4-((Cyclopentyl(piperidin-1-yl)methylene)amino)-6-methylquinolin-2(1H)-one] came in with a melting point of 222 °C. Further, in data set [1], the IC50 was found to be 1500 ± 100 nM. Further, the IC50 in [2] worked out at 1600 ± 100 nM. In data set [3], the inhibition at 20 µM turned out to be 29.6% and the inhibition at 100 µM was determined as 65.9%. In data set [4], the 50% inhibitory concentration (IC50) came to 1500 nM. Also, in data set [5], the IC50 is 1400 ± 100 nM. Further, in data set [6], testing at 20 µM gave an inhibition of 22.3% and 100 µM produced 57.2% inhibition. The IC50 in data set [7] came out at 1500 ± 100 nM. The molecule also gave a viability at 4 days, 50 µM in data set [8] of 92%.

`COc1ccc2[nH]c(=O)cc(/N=C(\C3CCCC3)N3CCOCC3)c2c1` [Compound 4i, (E) 4-((Cyclopentyl(morpholino)methylene)amino)-6-methoxyquinolin-2(1H)-one] showed a melting point of 247 °C. Also, the IC50 in [1] was 1100 ± 200 nM. The IC50 in data set [2] was found to be 1200 ± 200 nM. In data set [3], the inhibition at 20 µM came out at 37.2% and the inhibition at 100 µM was found to be 74.9%. Also, in data set [4], the IC50 came to 1300 nM. Further, the IC50 in [5] amounted to 1400 ± 200 nM. Besides, in [6], at 20 µM the inhibition was 23.1% and the inhibition at 100 µM worked out at 56.7%. For the same molecule, in [7], the concentration for half-maximal inhibition (IC50) was found to be 1600 ± 200 nM. The molecule also gave a viability at 4 days, 50 µM in [8] of 89%.

Consider `Cn1c(=O)cc(/N=C(\C2CCCC2)N2CCN(/C(=N/c3cc(=O)n(C)c4ccccc34)C3CCCC3)CC2)c2ccccc21` [Compound 5c, 4,4'-((1E,1′E)-(piperazine-1,4-diylbis(cyclopentylmethanylylidene))bis(azanylylid-ene))bis(1-methylquinolin-2(1H)-one)], for which the melting point was determined as 342 °C. Besides, in [1], the IC50 was determined as 1100 ± 100 nM. Moreover, the IC50 in data set [2] came out at 1100 ± 100 nM. Further, in data set [3], the inhibition at 20 µM was 46.7% and the inhibition at 100 µM turned out to be 84.8%. In addition, in data set [4], the 50% inhibitory concentration (IC50) was determined as 1000 nM. Moreover, the IC50 in [5] was 800 ± 100 nM. This molecule displayed an inhibition at 100 µM in [6] of 23.8%. Moreover, in [7], the IC50 turned out to be 900 ± 100 nM. This molecule had a viability at 4 days, 50 µM in data set [8] of 89%.

Values taken from paper PMC9716094, “Synthesis of novel amidines via one-pot three component reactions: Selective topoisomerase I inhibitors with antiproliferative properties” (Frontiers in Chemistry, 2022).
